Literature values in paper PMC7238120, “Strong and Selective Inhibitory Effects of the Biflavonoid Selamariscina A against CYP2C8 and CYP2C9 Enzyme Activities in Human Liver Microsomes” (Pharmaceutics, 2020).
Like-named read-outs stand apart in the source and are kept apart here.

How the values were obtained:
CYP2C8 = biological target: T1, CYP2C8 (Homo sapiens, UniProt P10632); conditions: cited from earlier work
T1 sequence (P10632 1-490): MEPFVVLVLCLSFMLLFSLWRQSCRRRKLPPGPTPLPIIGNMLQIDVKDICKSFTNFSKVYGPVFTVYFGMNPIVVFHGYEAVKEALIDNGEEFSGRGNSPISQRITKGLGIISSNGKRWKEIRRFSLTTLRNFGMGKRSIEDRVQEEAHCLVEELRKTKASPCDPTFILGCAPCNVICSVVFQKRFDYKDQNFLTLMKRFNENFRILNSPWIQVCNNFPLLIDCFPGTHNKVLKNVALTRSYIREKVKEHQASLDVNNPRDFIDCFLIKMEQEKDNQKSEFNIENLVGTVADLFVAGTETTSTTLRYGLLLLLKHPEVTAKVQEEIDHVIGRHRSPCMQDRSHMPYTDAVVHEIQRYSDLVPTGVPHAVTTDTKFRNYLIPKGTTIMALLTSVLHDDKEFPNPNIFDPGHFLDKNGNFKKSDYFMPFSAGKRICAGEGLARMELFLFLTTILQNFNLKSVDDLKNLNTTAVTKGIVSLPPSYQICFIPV

CYP2C9 = CYP2C9 (Homo sapiens, UniProt P11712); conditions: read-out: Ki, CYP2C9, known inhibitor; cited from earlier work
CYP3A4 = system: CYP3A4; set-up: method as in PMID 1602384; conditions: HLMs; cited from earlier work
CYP1A2 = biological target: T2, CYP1A2 (Homo sapiens, UniProt P05177); set-up: method as in PMID 7483658; conditions: human liver microsomes; read-out: Ki, CYP1A2, competitive inhibition; cited from earlier work
T2 construct: incubation mixtures containing pooled human liver microsomes (HLMs, XTreme 200, XenoTech); tissue XenoTech XTreme 200; host or cells: pooled human liver microsomes
T2 sequence (P05177 1-516): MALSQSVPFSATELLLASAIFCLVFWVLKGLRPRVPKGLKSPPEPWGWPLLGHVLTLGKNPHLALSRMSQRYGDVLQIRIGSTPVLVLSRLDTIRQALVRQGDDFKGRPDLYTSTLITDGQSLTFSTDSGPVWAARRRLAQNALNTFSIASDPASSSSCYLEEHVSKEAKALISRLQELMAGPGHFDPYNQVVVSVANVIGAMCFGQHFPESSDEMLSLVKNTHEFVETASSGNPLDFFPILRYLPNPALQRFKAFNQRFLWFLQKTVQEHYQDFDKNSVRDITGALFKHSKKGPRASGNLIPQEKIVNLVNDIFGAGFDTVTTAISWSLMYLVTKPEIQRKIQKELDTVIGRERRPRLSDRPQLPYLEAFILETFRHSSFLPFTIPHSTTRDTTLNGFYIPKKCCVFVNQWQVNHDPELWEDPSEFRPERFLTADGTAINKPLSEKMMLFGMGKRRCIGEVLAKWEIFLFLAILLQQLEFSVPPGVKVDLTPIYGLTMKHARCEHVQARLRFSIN

UGT1A1 = biological target: T3, UGT1A1 (Homo sapiens, UniProt P22309); set-up: method as in PMID 12386134; conditions: read-out: IC50, UGT1A1-mediated estradiol glucuronidation; cited from earlier work
T3 sequence (P22309 26-533): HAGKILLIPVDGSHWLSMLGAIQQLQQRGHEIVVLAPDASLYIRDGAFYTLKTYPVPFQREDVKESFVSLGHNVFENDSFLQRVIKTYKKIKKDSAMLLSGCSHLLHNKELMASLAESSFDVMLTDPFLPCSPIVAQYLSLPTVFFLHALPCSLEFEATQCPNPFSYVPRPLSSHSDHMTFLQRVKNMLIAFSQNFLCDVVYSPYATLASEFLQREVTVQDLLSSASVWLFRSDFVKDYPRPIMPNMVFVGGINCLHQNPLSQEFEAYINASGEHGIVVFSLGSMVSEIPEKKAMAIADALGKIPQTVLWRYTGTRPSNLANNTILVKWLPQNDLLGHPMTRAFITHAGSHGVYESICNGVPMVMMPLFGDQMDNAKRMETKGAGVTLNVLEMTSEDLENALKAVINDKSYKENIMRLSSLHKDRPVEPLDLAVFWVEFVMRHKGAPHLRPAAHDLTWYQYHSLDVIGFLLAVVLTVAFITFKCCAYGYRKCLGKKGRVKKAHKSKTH

[1] = read-out: Ki, CYP2C8, known inhibitor

Sequence of CYP2C9 (P11712 whole entry): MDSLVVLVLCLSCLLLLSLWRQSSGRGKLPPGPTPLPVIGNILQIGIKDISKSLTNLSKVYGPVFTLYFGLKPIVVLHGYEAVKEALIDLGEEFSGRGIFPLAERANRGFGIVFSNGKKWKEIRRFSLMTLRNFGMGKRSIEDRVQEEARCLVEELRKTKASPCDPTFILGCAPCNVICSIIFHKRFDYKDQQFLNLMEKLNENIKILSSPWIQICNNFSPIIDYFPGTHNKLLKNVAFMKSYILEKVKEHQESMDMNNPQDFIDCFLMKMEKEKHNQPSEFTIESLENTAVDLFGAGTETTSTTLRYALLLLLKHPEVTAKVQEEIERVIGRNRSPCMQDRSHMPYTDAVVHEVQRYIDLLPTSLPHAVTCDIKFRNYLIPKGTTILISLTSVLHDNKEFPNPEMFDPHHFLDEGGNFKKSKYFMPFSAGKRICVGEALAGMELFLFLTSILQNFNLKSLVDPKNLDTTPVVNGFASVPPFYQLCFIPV

CNC(=O)c1ccccc1Sc1ccc2c(/C=C/c3ccccn3)n[nH]c2c1 [axitinib]
Ki (CYP2C8; [1]): 170 nM

CCOC(=O)C1=C(C)NC(C)=C(C(=O)OC)C1c1cccc(Cl)c1Cl (stereo not shown) [felodipine]
IC50 (CYP2C8; read-out: IC50, CYP2C8, known inhibitor): 1200 nM

CNCCC(Oc1ccc(C(F)(F)F)cc1)c1ccccc1 (stereo not shown) [fluoxetine]
Ki (CYP2C9): 19000 to 87000 nM

COCCCC/C(=N\OCCN)c1ccc(C(F)(F)F)cc1 [fluvoxamine]
Ki (CYP2C9): 630 to 16000 nM

O=c1c(O)c(-c2ccc(O)cc2)oc2cc(O)cc(O)c12 [kaempferol]
Concentrations inhibiting metabolism of nifedipine and felodipine by CYP3A4 (CYP3A4): > 10 µM

Cc1cn(-c2cc(NC(=O)c3ccc(C)c(Nc4nccc(-c5cccnc5)n4)c3)cc(C(F)(F)F)c2)cn1 [nilotinib]
Ki (CYP2C8; [1]): 100 nM

O=c1c(O)c(-c2ccc(O)c(O)c2)oc2cc(O)cc(O)c12 [quercetin]
Concentrations inhibiting metabolism of nifedipine and felodipine by CYP3A4 (CYP3A4): > 10 µM

COc1ccc(-c2cc(=O)c3c(OC)c(OC)c(OC)c(OC)c3o2)cc1 [tangeretin]
Ki (CYP1A2): 68 nM | IC50 (UGT1A1): 1000 nM

COc1cc(C(=O)NS(=O)(=O)c2ccccc2C)ccc1Cc1cn(C)c2ccc(NC(=O)OC3CCCC3)cc12 [zafirlukast]
Ki (CYP2C8; read-out: Ki, CYP2C8, well-known inhibitor): 390 nM
